Measured values reported in publication PMC4336331, “Novel Receptor-Derived Cyclopeptides to Treat Heart Failure Caused by Anti-β1-Adrenoceptor Antibodies in a Human-Analogous Rat Model” (PLoS ONE, 2015).
Entries after “also recorded” stand apart in the source; their conditions may differ. Peptide text beside a SMILES is read from it.

Columns and labels:
[1] = tested on: IL1-β, TGF-β1 transcripts; test: qRT-PCR of cardiac profibrotic markers, therapy-study; assay type: in vivo, Lewis/CrlBR rats; conditions: qRT-PCR of apical cardiac tissues, normalised to controls (Fig. 3D)
Method: Total RNA was isolated from frozen myocardium by RNeasy mini Kit (Qiagen, Hilden, Germany). Reverse transcription of total RNA isolated from frozen myocardium was performed in 96-well plates utilising a high capacity RNA-to-cDNA master mix (Applied Biosystems, Foster City, CA). PCR reactions were conducted in the presence of the fluorescent dye Sybr-Green (Cambrex BioScience, East Rutherford, NY) and the reference-dye 6-carboxy-X-rhodamine (ROX) using an ABI PRISM sequence detection system 7700 (Applied Biosystems). All amplification products were controlled for specificity by running a melting curve analysis; results were calculated using the 2^-ΔΔCT method. The relative expression levels were derived from a standard curve and normalised to GAPDH as an endogenous control. Quantitative real-time PCR (qRT-PCR) analyses are presented as fold change compared to untreated (0.9% NaCl-injected) control hearts. […]
Fig 3 Histology of rat hearts (therapy-study). […] (B) Quantification of fibrotic scars in midventricular 2μm-sections (mvhs, mid-ventricular heart-section). […] For all parameters shown, differences between the treatment-groups were assessed by […] one way ANOVA and Dunnett`s post-hoc test; *p<0.05; **p<0.001.

[2] = tested on: brain, liver, heart, kidney, eye, and spleen; test: Histologic analysis of organs for treatment-related pathologies
From the text: After the hearts all other relevant inner organs (e.g., lung, liver, spleen, kidneys, brain, and eyes) were removed, rinsed with ice-cold PBS, weighed, sectioned, and fixed for further histologic analysis.
Supplementary file pone.0117589.s003.tif: S3 Fig Histologic analysis of various organs (therapy-study, mono-treatment). Representative H&E-stained 2μm cross-sections from various organs analyzed for treatment-related pathologies. Panels (from top to bottom) show organs analyzed from immunised anti-β1EC2-positive untreated, β1EC2-CP-treated, or bisoprolol-treated rats. […] (TIF) Click here for additional data file.

[3] = tested on: cardiac β1-ARs; test: Radioligand binding of cardiac membranes (125I-CYP); assay type: in vivo, Lewis/CrlBR rats; conditions: 125I-cyanopindolol binding to cardiac membranes, CGP20712A competition (Fig. 4A and B)
Method: Membranes from apical cardiac tissues from rats of each study-group were prepared as previously described. To determine total β-AR density (Bmax), 35μg membrane protein were incubated (1.5 h, 25°C) in binding buffer with 200pM of the non-selective β-AR antagonist ^125I-cyanopindolol (^125I-CYP; Perkin Elmer Life and Analytical Sciences, Billerica, MA). Non-specific binding was determined with 5μM unlabeled L-propranolol. The proportion of β1- and β2-AR subtypes was estimated from biphasic competition-curves with 10^-10 to 10^-2 M of the unlabeled β1-selective antagonist CGP20712A (Sigma). The reaction was stopped by rapid filtration (Whatman GF/C filters) and washing with ice-cold buffer. Filter-bound radioactivity was measured by γ-counting. Estimates of maximal binding (Bmax) and the proportion of β1- and β2-AR-subtypes were calculated with GraphPad Prism 5.00 (San Diego, CA).
Fig 4 Cardiac adrenergic system and molecular markers. […] Columns ± error bars represent the level of expression of the indicated markers ±SEM in cardiac tissues from the indicated treatment-groups compared to values from 0.9% NaCl-injected rats (controls, set at 100%), as determined by qRT-PCR normalised to GAPDH (one way ANOVA and Dunnett`s post-hoc test; *p<0.05; **p<0.001).

SMILES | reduction of the increases in cardiac transcripts of profibrotic markers (IL1-β, TGF-β1) [1] [%] | treatment-related organ pathologies / organ-toxicity, in words ([2]; rat, in vivo) | cardiac β1-AR density (downregulation), in words [3] | treatment-related organ pathologies / organ-toxicity, in words ([2]; therapy-study, after 12 months of treatment, H&E-stained sections (S3 Fig.))
CC(C)NCC(O)COc1ccc(COCCOC(C)C)cc1 (stereo not drawn) [bisoprolol, reference compound] | ~50 | Neither treatment strategy caused detectable organ-specific toxicity | small increase | –
CC(C)[C@@H]1NC(=O)[C@H](Cc2ccccc2)NC(=O)[C@H](CC(=O)O)NC(=O)[C@H](CS)NC(=O)[C@H](CS)NC(=O)[C@H](CCCCN)NC(=O)[C@@H]2CCCN2C(=O)[C@H](CC(=O)O)NC(=O)[C@H](CC(N)=O)NC(=O)[C@H](Cc2ccc(O)cc2)NC(=O)[C@H](CS)NC(=O)[C@H](CCCNC(=N)N)NC(=O)[C@H](CCCNC(=N)N)NC(=O)[C@H](C)NC(=O)[C@H](CCC(=O)O)NC(=O)[C@H](CC(=O)O)NC(=O)[C@H](CO)NC(=O)[C@H](CCC(=O)O)NC(=O)[C@H](C)NC(=O)[C@H](CCCNC(=N)N)NC(=O)[C@H](C)NC(=O)[C@H](CCC(N)=O)NC(=O)CNC(=O)[C@H](CCCNC(=N)N)NC(=O)[C@H](CC(N)=O)NC(=O)[C@H]([C@@H](C)O)NC1=O [β1EC2-CP] (cyclo(AESDEARRCYNDPKCCDFVTNRGQAR)) | ~50 | – | largely prevented | no β1EC2-CP-related pathologies were noted; also recorded: Neither treatment strategy caused detectable organ-specific toxicity
